From publication PMC3429062, “A Novel Member of the Trehalose Transporter Family Functions as an H^+-Dependent Trehalose Transporter in the Reabsorption of Trehalose in Malpighian Tubules” (Frontiers in Physiology, 2012)

Target: T1, PvTRET1 (Polypedilum vanderplanki, UniProt A5LGM7)
T1 construct: gene Tret1; expressed from injected cRNA in Xenopus oocytes; construct described previously
T1 sequence (A5LGM7 1-504): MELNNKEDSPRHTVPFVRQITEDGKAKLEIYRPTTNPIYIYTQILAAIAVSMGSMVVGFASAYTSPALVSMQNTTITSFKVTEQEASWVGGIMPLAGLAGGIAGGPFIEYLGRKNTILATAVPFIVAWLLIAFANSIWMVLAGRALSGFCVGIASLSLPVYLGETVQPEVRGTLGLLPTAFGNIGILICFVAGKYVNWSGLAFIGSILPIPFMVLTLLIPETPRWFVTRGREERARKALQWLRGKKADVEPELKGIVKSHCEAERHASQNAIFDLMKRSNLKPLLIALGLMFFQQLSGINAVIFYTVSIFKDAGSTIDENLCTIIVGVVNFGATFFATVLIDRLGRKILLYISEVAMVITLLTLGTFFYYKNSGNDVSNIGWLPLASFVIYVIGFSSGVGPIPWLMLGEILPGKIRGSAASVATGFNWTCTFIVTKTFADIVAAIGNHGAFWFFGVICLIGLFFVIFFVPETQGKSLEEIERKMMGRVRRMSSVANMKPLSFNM
Test: uptake into cRNA-injected Xenopus oocytes, HPLC
Assay type: cell-based
Conditions: 105 mM trehalose, various pH; transport

Structure (SMILES): OC[C@H]1O[C@H](O[C@H]2O[C@H](CO)[C@@H](O)[C@H](O)[C@H]2O)[C@H](O)[C@@H](O)[C@@H]1O [trehalose]
- trehalose uptake: Trehalose uptake into Xenopus oocytes via PvTRET1 at various pH values
